According to patent US8877775B2, “Substituted 2-aza-bicyclo[2.2.2]octane-3-carboxylic acid (benzyl-cyano-methyl)-amides inhibitors of cathepsin C” (Boehringer Ingelheim International GmbH, priority 2013, dated 2014):

Key:
[1] = molecular target: recombinant human Cathepsin K (Homo sapiens (Human), UniProt P43235); assay: Inhibition of human Cathepsin K; type: biochemical; conditions: substrate Z-Gly-Pro-Arg-AMC 12.5 μM, 60 min, room temperature
Source text: Inhibition of Human Cathepsin K
Materials: Microtiterplates (Optiplate-384 F were purchased from PerkinElmer (Prod. No. 6007270). The substrate Z-Gly-Pro-Arg-AMC was from Biomol (Prod.-No. P-142). L-Cysteine (Prod. No. 168149) was from Sigma. Sodium actetate was from Merck (Prod.-No. 6268.0250), EDTA was from Fluka (Prod.-No. 03680). The inhibitor E-64 was purchased from Sigma (Prod.-No. E3132). The recombinant human Cathepsin K proenzyme was purchased from Biomol (Prod. No. SE-367). All other materials were of highest grade commercially available.
The following buffers were used: Activation buffer: 32.5 mM sodium acetate, adjusted to pH 3.5 with HCl; Assay buffer: 150 mM sodium acetate, 4 mM EDTA, 20 mM L-Cysteine, adjusted to pH 5.5 with HCl,
To activate the proenzyme, 5 μl procathepsin K were mixed with 1 ul activation buffer, and incubated at room temperature for 30 min.
5 μL test compound (final concentration 0.1 nM to 100 μM) in aqua bidest (containing 4% DMSO, final DMSO concentration 1%) were mixed with 10 uL of Cathepsin K in assay buffer (final concentration 2 ng/μL) and incubated for 10 min. Then 5 μL of substrate in assay buffer (final concentration 12.5 μM) were added. The plates were then incubated at room temperature for is 60 min. Then, the reaction was stopped by adding 10 μL of E64 in assay buffer (final concentration 1 μM). The fluorescence in the wells was determined using a Molecular Devices SpectraMax M5 Fluorescence Reader (Ex 360 nm, Em 460 nm).
Each assay microtiter plate contains wells with vehicle controls (1% DMSO in bidest) as reference for non-inhibited enzyme activity (100% Ctl; high values) and wells with inhibitor (E64 in bidest+1% DMSO, final concentration 1 μM) as controls for background fluorescence (0% Ctl; low values). The analysis of the data was performed by calculating the percentage of fluorescence in the presence of test compound in comparison to the fluorescence of the vehicle control after subtracting the background fluorescence: (RFU(sample)−RFU(background))*100/(RFU(control)−RFU(background))
Data from these calculations were used to generate IC50 values for inhibition of Cathepsin K, respectively.

[2] = tested on: Neutrophil elastase activity in U937 cells; assay: Neutrophil elastase activity in U937 cytosolic lysate after incubation with test compound; type: cell-based; conditions: Homo sapiens, U-937; U937 cells incubated 48 hours with compound; NE activity in lysate; read-out: Reduction of NE-activity in U937 cells IC50
Procedure: Determination of Neutrophil Elastase Activity in U937 Cytosolic Lysate Preparation after Incubation with Test Compound Materials: Optiplate 384F were purchased from PerkinElmer (Prod. No. #6007270). 24 well Nunclon cell culture plates (No. 142475) and 96 well plates (No. 267245) were from Nunc. Dimethylsulfoxid (DMSO) was from Sigma (Prod. No. D8418). Nonidet-P40 (NP40) was from USBiological (Prod. No. N3500) Substrate, specific for Neutrophil elastase, was from Bachem (MeOSuc-Ala-Ala-Pro-Val-AMC; Prod. No. I-1270). Human neutrophil elastase was from Calbiochem (Prod. No. 324681) Buffers: Tris-buffer (100 mM Tris; 1M NaCL; pH 7.5) Tris-buffer+HSA 0.1%; Human Serum Albumin from Calbiochem (Cat#. 126658) Serine-protease buffer (20 mM Tris; 100 mM NaCL; pH 7.5)+0.1% HSA Serine protease lysis buffer: 20 mM Tris-HCL; 100 mM NaCl pH 7.5; +0.2% Nonidet-P40; PBS: phosphate buffered saline, without Ca and Mg, from Gibco Cell Culture: U937 from ECACC (Cat. No. 85011440) cultured in suspension at 37° C. and 5% CO2. Cell density: 0.2-1 Mio. Cells/ml. Medium: RPMI1640 GlutaMAX (No. 61870) with 10% FCS from Gibco Cell Seeding and Treatment: Compounds in 100% DMSO were diluted in Medium (—FCS) with 10% DMSO and further diluted according to the experiment planned. 20 μl of the compound solution was transferred in the respective wells of the 24 well plate and diluted with 2 ml cell suspension/well containing 1′10^5 cells/ml (final concentration of DMSO=0.1%). Compound dilution factor=100 Compounds (up to 7 concentrations) were tested in triplicates with 3 wells for the DMSO 0.1% control, incubated for 48 hours without medium change at 37° C., 5% CO2 and 95% relative to humidity. Cell Harvesting and Cell Lysate:
Transfer the cell suspension in 2.2 ml Eppendorf cups. Separate cells from medium by centrifugation (400×g; 5 min; RT); discard the supernatant. Resuspend in 1 ml PBS; centrifugation (400×g; 5 min; RT); wash cells twice with PBS. Add 100 μl Serin lysis buffer (ice cold) to the cell pellet; resuspend the pellet and store on ice for 15 minutes. Remove debris by centrifugation at 15000×g for 10 min at 4° C. Transfer 80-100 μl lysate supernatant in 96 well plate and store immediately at −80° C.
Neutrophil Elastase Activity Assay:
Frozen lysates were thawn at 37° C. for 10 minutes and stored on ice. Protein content was determined with Bradford protein assay. Lysates were diluted to 0.2-0.5 mg/ml protein in serine protease buffer+HSA.
Standard: NE (100 μg/ml stocksolution in Tris-buffer; stored at −80° C.) was diluted in Tris-buffer+HSA to 750 ng/ml, and further serially diluted 1:2 for the standard curve.
Buffer, blank, standard and lysate samples were transferred into 384 well plate
The increase in fluorescence (Ex360 nm/Em 460 nm) is determined over 30 minutes with a Molecular Device Spectramax M5 Fluorescence Reader. Kinetic Reduction (Vmax units/sec); 4 vmax points. The amount of neutrophil elastase (ng/ml) is calculated using the standard curve and the Spectramax software. The result is interpolated to ng/mg lysate protein using excel formula functions. […] IC50 is calculated using Graphpad Prism; nonlinear fitting (log(inhibitor) vs. response—Variable slope). The IC50 value is interpolated as the concentration of test compound which leads to a neutrophil elastase activity reduction of 50% (relative to the DMSO-treated control).

[3] = Metabolic stability with human liver microsomes; type: in vitro ADME; conditions: pH 7.6; pooled human liver microsomes, 37° C., 1 μM test compound, 1 mg/ml protein, NADPH; read-out: In vitro stability in human liver microsome incubations t1/2
Procedure: Determination of Metabolic Stability with Human Liver Microsomes
The metabolic degradation of the test compound is assayed at 37° C. with pooled human liver microsomes. The final incubation volume of 100 μl per time point contains TRIS buffer pH 7.6 (0.1 M), magnesium chloride (5 mM), microsomal protein (1 mg/ml) and the test compound at a final concentration of 1 μM. Following a short preincubation period at 37° C., the reactions are initiated by addition of beta-nicotinamide adenine dinucleotide phosphate, reduced form (NADPH, 1 mM) and terminated by transfering an aliquot into acetonitrile after different time points. Additionally, the NADPH-independent degradation is monitored in incubations without NADPH, terminated at the last time point. The [%] remaining test compound after NADPH independent incubation is reflected by the parameter c(control) (metabolic stability). The quenched incubations are pelleted by centrifugation (10′000 g, 5 min). An aliquot of the supernatant is assayed by LC-MS/MS for the amount of parent compound.
The half-life (t1/2 INVITRO) is determined by the slope of the semilogarithmic plot of the concentration-time profile. The intrinsic clearance (CL_[…]) is calculated by considering the amount of protein in the incubation: CL_[…][μl/min/mg protein]=(In 2/(half-life[min]*protein content[mg/ml]))*1′000. The half-life (t1/2 INVITRO) values of selected compounds in the metabolic stability assay described above are listed in the following table

[4] = molecular target: recombinant human DPPI (Cathepsin C) (Homo sapiens (Human), UniProt P53634); assay: Inhibition of human DPPI (Cathepsin C); type: biochemical; conditions: substrate Gly-Arg-AMC 50 μM, 30 min, room temperature
Source text: Inhibition of Human DPPI (Cathepsin C)
Materials: Microtiterplates (Optiplate-384 F) were purchased from PerkinElmer (Prod. No. 6007270). The substrate Gly-Arg-AMC was from Biotrend (Prod.-No. 808756 Custom peptide). Bovine serum albumin (BSA; Prod. No. A3059) and Dithiothreitol (DTT; Prod. No D0632) were from Sigma. TagZyme buffer was from Riedel-de-Haen (Prod.-No. 04269), NaCl was from Merck (Prod.-No. 1.06404.1000) and morpholinoethane sulfonic acid (MES), was from Serva (Prod.-No. 29834). The DPP1 inhibitor Gly-Phe-DMK was purchased from MP Biomedicals (Prod.-No. 03DK00625). The recombinant human DPPI was purchased from Prozymex. All other materials were of highest grade commercially available.
The following buffers were used: MES buffer: 25 mM MES, 50 mM NaCl, 5 mM DTT, adjusted to pH 6.0, containing 0.1% BSA; TAGZyme Buffer: 20 mM NaH2PO4, 150 mM NaCl adjusted to pH 6.0 with HCl
The recombinant human DPPI was diluted in TAGZyme buffer to 1 U/ml (38.1 μg/ml, respectively), and then activated by mixing in a 1:2 ratio with a Cysteamine aqueous solution (2 mM) and incubating for 5 min at room temperature.
Five uL test compound (final concentration 0.1 nM to 100 μM) in aqua bidest (containing 4% DMSO, final DMSO concentration 1%) were mixed with 10 μL of DPPI in MES buffer (final concentration 0.0125 ng/μL) and incubated for 10 min. Then, 5 μL of substrate in MES buffer (final concentration 50 μM) were added. The microtiter plates were then incubated at room temperature for 30 min. Then, the reaction was stopped by adding 10 μL of Gly-Phe-DMK in MES-buffer (final concentration 1 μM). The fluorescence in the wells was determined using a Molecular Devices SpectraMax M5 Fluorescence Reader (Ex 360 nm, Em 460 nm) or an Envision Fluorescence Reader (Ex 355 nm, Em 460 nm).
The analysis of the data was performed by calculating the percentage of fluorescence in the presence of test compound in comparison to the fluorescence of the vehicle control after subtracting the background fluorescence using the following formula: (RFU(sample)−RFU(background))*100/(RFU(control)−RFU(background))
Data from these calculations were used to generate IC50 values for inhibition of DPPI, respectively.

Chain of recombinant human Cathepsin K (P43235 115-329): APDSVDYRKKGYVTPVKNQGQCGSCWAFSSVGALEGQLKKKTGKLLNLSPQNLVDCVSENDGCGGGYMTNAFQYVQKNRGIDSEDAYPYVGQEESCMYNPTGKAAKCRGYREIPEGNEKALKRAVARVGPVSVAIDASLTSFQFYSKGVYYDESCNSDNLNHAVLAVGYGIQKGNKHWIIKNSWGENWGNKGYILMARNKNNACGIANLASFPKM
Chain of recombinant human DPPI (Cathepsin C) (P53634 231-394): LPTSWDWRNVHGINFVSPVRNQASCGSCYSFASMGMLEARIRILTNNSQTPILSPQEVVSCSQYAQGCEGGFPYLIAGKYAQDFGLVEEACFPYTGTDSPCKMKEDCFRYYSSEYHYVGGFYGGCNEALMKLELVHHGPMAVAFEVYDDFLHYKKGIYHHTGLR
Chain of recombinant human DPPI (Cathepsin C) (P53634 395-463): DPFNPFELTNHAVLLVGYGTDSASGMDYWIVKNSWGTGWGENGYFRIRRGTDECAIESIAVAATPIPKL
Chain of recombinant human DPPI (Cathepsin C) (P53634 25-134): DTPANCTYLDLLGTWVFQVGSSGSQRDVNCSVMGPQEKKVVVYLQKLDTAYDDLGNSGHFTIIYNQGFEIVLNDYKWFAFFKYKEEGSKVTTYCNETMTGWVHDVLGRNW

SMILES	IC50 [1]	IC50 [2]	half-life at 1 μM [3]	IC50 [4]
CS(=O)(=O)c1cc(-c2ccc(C[C@@H](C#N)NC(=O)[C@H]3NC4CCC3CC4)c(F)c2)ccc1C#N [Example 1, (2S)—N-[(1S)-1-cyano-2-[4-(4-cyano-3-methylsulfonyl-phenyl)-2-fluoro-phenyl]ethyl]-3-azabicyclo[2.2.2]octane-2-carboxamide]	2700 nM	134 nM	2 h	
CN1C(=O)Cc2ccc(-c3ccc(C[C@@H](C#N)NC(=O)[C@H]4NC5CCC4CC5)cc3)cc21 [Example 6]				52.2 nM
N#Cc1ccc(-c2ccc(C[C@@H](C#N)NC(=O)[C@H]3NC4CCC3CC4)cc2)cc1 [Example 9]	14800 nM		> 2.17 h	73 nM
N#C[C@H](Cc1ccc(-c2ccc(S(N)(=O)=O)cc2)cc1)NC(=O)[C@H]1NC2CCC1CC2 [Example 13]	10800 nM			102 nM
N#C[C@H](Cc1ccc(-c2ccc3c(c2)CC(=O)N3)cc1)NC(=O)[C@H]1NC2CCC1CC2 [Example 14]				103 nM
CS(=O)(=O)c1ccc(-c2ccc(C[C@@H](C#N)NC(=O)[C@H]3NC4CCC3CC4)cc2)cc1 [Example 15]				110 nM
N#C[C@H](Cc1ccc(-c2ccc(C(N)=O)cc2)cc1)NC(=O)[C@H]1NC2CCC1CC2 [Example 16]				118 nM
CS(=O)(=O)Nc1ccc(-c2ccc(C[C@@H](C#N)NC(=O)[C@H]3NC4CCC3CC4)cc2)cc1 [Example 17]	6700 nM			124 nM
N#C[C@H](Cc1ccc(-c2cccc(C(N)=O)c2)cc1)NC(=O)[C@H]1NC2CCC1CC2 [Example 18]	9700 nM			131 nM
N#C[C@H](Cc1ccc(-c2ccc3c(c2)CCNC3=O)cc1)NC(=O)[C@H]1NC2CCC1CC2 [Example 20]				137 nM
COCCN1C(=O)Cc2ccc(-c3ccc(C[C@@H](C#N)NC(=O)[C@H]4NC5CCC4CC5)cc3)cc21 [Example 21]				160 nM
CCS(=O)(=O)c1ccc(-c2ccc(C[C@@H](C#N)NC(=O)[C@H]3NC4CCC3CC4)cc2)cc1 [Example 22]				164 nM
N#C[C@H](Cc1ccc(-c2cc(F)c(F)c(F)c2)cc1)NC(=O)[C@H]1NC2CCC1CC2 [Example 23]				244 nM
N#Cc1cc(-c2ccc(C[C@@H](C#N)NC(=O)[C@H]3NC4CCC3CC4)cc2)ccn1 [Example 24]				248 nM
CN1Cc2ccc(-c3ccc(C[C@@H](C#N)NC(=O)[C@H]4NC5CCC4CC5)c(F)c3)cc2C1 [Example 25]				98 nM
CS(=O)(=O)c1ccc(-c2ccc(C[C@@H](C#N)NC(=O)C3NC4CCC3CC4)c(F)c2)cc1C#N (stereo partly drawn) [Example 26]				27.8 nM
CN1Cc2cc(-c3ccc(C[C@@H](C#N)NC(=O)[C@H]4NC5CCC4CC5)c(F)c3)ccc2S1(=O)=O [Example 27]				73.3 nM
